The text below walks through data of patent publication US9475815B2, “Substituted benzothienyl-pyrrolotriazines and uses thereof” (Bayer Intellectual Property GmbH, priority 2012, dated 2016).

The structures appear in SMILES notation.

One experiment deals with human FGFR-3 (Homo sapiens (Human), UniProt P22607). As to the kind of experiment: FGFR-3 kinase assay (TR-FRET). It counts as biochemical. Particulars: 10 μM ATP, 15 min pre-incubation with enzyme. In general terms: Time-resolved FRET reads energy transfer from a long-lived donor to a nearby acceptor.
human FGFR-3, sequence (P22607 397-806): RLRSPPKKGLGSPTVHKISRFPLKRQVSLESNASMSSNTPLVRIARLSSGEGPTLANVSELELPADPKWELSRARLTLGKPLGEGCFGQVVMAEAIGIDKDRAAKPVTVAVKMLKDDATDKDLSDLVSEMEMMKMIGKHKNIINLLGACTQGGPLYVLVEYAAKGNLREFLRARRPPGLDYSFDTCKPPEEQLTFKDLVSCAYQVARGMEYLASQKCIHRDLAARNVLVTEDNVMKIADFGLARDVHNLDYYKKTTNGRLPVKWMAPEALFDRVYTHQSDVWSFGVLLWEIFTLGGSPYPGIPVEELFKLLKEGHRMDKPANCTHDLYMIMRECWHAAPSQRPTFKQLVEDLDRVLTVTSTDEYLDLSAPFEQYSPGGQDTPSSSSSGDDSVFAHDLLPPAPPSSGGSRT
In a further experiment the target is human mTOR (Homo sapiens (Human), UniProt P42345). As to the kind of experiment: mTOR kinase assay (TR-FRET, for comparative purposes). It counts as biochemical. Particulars: for inhibition at 1 µM: read-out: mTOR % inhibition @ 1 μM, 1 μM test compound, 40 μM ATP, mean values. The procedure:
mTOR inhibitory activity of the compounds of the present invention was quantified employing the TR-FRET based mTOR assay as described in the following paragraphs:
Test compounds were dissolved in DMSO to generate 10 mM stock solutions. These solutions were first 10-fold diluted by 100% DMSO to get 1 mM solutions in 100% DMSO, then 100-fold diluted by 50% DMSO to get 10 μM solutions in 50% DMSO.
(final concentration in the 10 μl assay volume=1 nM) in FRET buffer.
For this, the fluorescence emissions at 495 nm and 520 nm after excitation at 340 nm was measured in an Envision 2104 multilabel reader (Perkin-Elmer).

A further experiment has as its target human FGFR-1 (Homo sapiens, UniProt P11362). As to the kind of experiment: FGFR-1 high ATP kinase assay (TR-FRET).

human FGFR-1, sequence (P11362 22-822 limits assumed): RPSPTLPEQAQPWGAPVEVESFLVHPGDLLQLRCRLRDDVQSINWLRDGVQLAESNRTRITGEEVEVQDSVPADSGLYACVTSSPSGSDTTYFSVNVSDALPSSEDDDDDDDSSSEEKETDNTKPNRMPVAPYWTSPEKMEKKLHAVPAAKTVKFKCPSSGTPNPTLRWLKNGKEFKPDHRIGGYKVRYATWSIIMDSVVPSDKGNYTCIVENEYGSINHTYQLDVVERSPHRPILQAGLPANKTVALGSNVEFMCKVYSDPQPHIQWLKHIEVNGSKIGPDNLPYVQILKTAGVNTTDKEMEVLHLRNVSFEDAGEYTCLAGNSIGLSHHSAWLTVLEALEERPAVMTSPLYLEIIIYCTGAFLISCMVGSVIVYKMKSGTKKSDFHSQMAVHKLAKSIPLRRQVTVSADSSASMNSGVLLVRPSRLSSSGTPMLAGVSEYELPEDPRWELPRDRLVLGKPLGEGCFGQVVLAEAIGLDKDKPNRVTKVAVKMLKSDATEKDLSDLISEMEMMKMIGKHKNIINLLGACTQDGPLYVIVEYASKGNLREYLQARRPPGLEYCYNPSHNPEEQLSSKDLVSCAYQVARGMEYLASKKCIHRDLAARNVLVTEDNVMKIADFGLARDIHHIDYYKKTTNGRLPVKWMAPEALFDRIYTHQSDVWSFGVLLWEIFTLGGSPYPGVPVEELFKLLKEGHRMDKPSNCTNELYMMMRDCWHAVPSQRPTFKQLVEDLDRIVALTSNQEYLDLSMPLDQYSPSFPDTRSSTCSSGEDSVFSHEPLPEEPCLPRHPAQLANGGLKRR
human mTOR, sequence (P42345 1360-2549): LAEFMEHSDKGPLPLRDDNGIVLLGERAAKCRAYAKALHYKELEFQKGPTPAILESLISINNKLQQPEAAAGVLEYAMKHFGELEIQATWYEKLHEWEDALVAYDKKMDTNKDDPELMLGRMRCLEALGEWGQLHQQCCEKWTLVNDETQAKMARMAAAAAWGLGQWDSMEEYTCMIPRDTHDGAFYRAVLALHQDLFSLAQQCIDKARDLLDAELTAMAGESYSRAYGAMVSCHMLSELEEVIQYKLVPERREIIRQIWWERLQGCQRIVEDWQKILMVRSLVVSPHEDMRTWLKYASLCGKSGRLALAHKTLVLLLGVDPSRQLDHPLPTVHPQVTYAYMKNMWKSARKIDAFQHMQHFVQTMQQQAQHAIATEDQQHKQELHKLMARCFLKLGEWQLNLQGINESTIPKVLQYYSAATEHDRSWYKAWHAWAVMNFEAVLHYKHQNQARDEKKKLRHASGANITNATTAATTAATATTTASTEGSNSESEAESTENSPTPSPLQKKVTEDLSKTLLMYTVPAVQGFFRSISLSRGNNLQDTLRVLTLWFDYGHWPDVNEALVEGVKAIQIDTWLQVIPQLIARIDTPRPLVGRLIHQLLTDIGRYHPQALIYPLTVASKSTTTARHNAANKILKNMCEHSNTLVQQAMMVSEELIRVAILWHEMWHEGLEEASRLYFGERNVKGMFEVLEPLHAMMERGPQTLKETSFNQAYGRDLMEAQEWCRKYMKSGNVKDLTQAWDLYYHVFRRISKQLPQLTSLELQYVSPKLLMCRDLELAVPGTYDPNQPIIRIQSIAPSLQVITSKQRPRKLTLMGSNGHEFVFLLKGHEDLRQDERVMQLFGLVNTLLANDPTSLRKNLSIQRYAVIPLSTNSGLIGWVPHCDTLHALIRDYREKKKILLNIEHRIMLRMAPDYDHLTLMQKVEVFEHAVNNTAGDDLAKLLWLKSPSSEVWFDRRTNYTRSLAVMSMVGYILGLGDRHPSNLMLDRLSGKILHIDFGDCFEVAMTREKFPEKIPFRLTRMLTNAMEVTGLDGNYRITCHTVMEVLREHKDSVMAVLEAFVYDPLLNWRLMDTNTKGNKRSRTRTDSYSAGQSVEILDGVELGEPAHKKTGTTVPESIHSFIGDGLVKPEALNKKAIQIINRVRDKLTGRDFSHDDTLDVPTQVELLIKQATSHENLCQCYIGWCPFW

In general, IC50 refers to the concentration that gives 50% inhibition. Low values mean inhibition by little substance, high ones a need for much substance. In general, inhibition refers to the change of the read-out against control, counted positive when it falls. Regarding `COc1cc(C)cc2cc(-c3cc(CNCCN4CCC(O)CC4)n4ncnc(N)c34)sc12` [Example 58], the IC50 on human FGFR-3 is 46.7 nM; against human FGFR-1 it was 36.2 nM. Besides, the inhibition at 1 µM at human mTOR was 12.6%.

Consider `COc1cc(C)cc2cc(-c3cc(COCCNC(C)C)n4ncnc(N)c34)sc12` [Example 115], for which the IC50 at human FGFR-3 was determined as 63.9 nM; against human FGFR-1 it was 78.6 nM. On human mTOR, the inhibition at 1 µM amounted to 6.5%.

`COc1cc(C)cc2cc(-c3cc(CN4CC(O)C(NCCO)C4)n4ncnc(N)c34)sc12` (stereo not drawn) [Example 21]: the IC50 against human FGFR-3 was 8 nM; on human FGFR-1, 13.2 nM. Further, the inhibition at 1 µM at human mTOR worked out at 37.6%.

In the case of `COc1cc(C)cc2cc(-c3cc(CO[C@@H]4CCNC4)n4ncnc(N)c34)sc12` [Example 118], the IC50 against human FGFR-3 was 45 nM; against human FGFR-1, 26.1 nM. Moreover, the inhibition at 1 µM at human mTOR came to 18.4%.

For the compound `COc1cc(C)cc2cc(-c3cc(COC[C@@H]4CCCN4)n4ncnc(N)c34)sc12` [Example 109], the IC50 at human FGFR-3 is 37.1 nM; at human FGFR-1, 65.6 nM. In addition, at human mTOR (1 μM test compound, 40 μM ATP, mean values), the “mTOR % inhibition @ 1 μM” value is given as “no inhib. effect detect”.

`COc1cc(C)cc2cc(-c3cc(CN4CCC(O)CC4)n4ncnc(N)c34)sc12` [Example 88]: the half-maximal inhibitory concentration (IC50) at human FGFR-3 came out at 21.3 nM; against human FGFR-1, 15.7 nM. For the same compound, the inhibition at 1 µM on human mTOR is 29.5%.

Consider `COc1cc(C)cc2cc(-c3cc(COC[C@H](C)N)n4ncnc(N)c34)sc12` [Example 111], for which the IC50 against human FGFR-3 turned out to be 85.6 nM; at human FGFR-1, 82.2 nM. Also, the inhibition at 1 µM at human mTOR was determined as 1.1%.

Regarding `COc1cc(C)cc2cc(-c3cc(C(=O)N4CCC(N(C)C)C4)n4ncnc(N)c34)sc12` (stereo not drawn) [Example 100], the IC50 amounted to 35.9 nM on human FGFR-3 and 20.7 nM at human FGFR-1. In addition, on human mTOR, the inhibition at 1 µM was found to be 15.9%.

Take `COc1cc(C)cc2cc(-c3cc(CNCCC4CCCN4C)n4ncnc(N)c34)sc12` (stereo not drawn) [Example 65]: the IC50 amounted to 49.5 nM on human FGFR-3 and 49.1 nM against human FGFR-1. Besides, the inhibition at 1 µM on human mTOR was found to be 5.9%.

Consider `COc1cc(C)cc2cc(-c3cc(CN4CCC(CO)CC4)n4ncnc(N)c34)sc12` [Example 73], for which the IC50 turned out to be 64.8 nM against human FGFR-3 and 66.6 nM at human FGFR-1. Also, at human mTOR, the inhibition at 1 µM was 17.2%.

In the case of `COc1cc(C)cc2cc(-c3cc(C(=O)N4CCNC(C)(C)C4)n4ncnc(N)c34)sc12` [Example 103], the IC50 against human FGFR-3 stood at 114 nM; against human FGFR-1, 51.7 nM. Besides, the inhibition at 1 µM on human mTOR turned out to be 9.2%.

`COc1cc(C)cc2cc(-c3cc(CN4CC[C@@H](N(C)C)C4)n4ncnc(N)c34)sc12` [Example 90]: the IC50 stood at 30.3 nM on human FGFR-3 and 26 nM at human FGFR-1. Further, the inhibition at 1 µM on human mTOR worked out at 22.7%.

`COc1cc(C)cc2cc(-c3cc(CN4CCCN(C)CC4)n4ncnc(N)c34)sc12` [Example 89]: the IC50 against human FGFR-3 was determined as 28.2 nM; on human FGFR-1, 24.9 nM. Moreover, on human mTOR, the inhibition at 1 µM stood at 28.7%.

As for `COc1cc(C)cc2cc(-c3cc(CN4CCN(CC(N)=O)CC4)n4ncnc(N)c34)sc12` [Example 64], the values for the IC50 on human FGFR-3 and against human FGFR-1 were 56.4 nM and 48.9 nM, respectively. Besides, the inhibition at 1 µM at human mTOR is 28.2%.

With `CCCc1nccn1Cc1cc(-c2cc3cc(C)cc(OC)c3s2)c2c(N)ncnn12` [Example 121], the concentration for half-maximal inhibition (IC50) on human FGFR-3 was 65.9 nM; against human FGFR-1 it was 33.3 nM. Further, the inhibition at 1 µM on human mTOR is 26.8%.

Take `COc1cc(C)cc2cc(-c3cc(COCCN)n4ncnc(N)c34)sc12` [Example 120]: the IC50 at human FGFR-3 is 53.9 nM; on human FGFR-1, 50.8 nM. Moreover, at human mTOR, the inhibition at 1 µM is 14.8%.

As for `COc1cc(C)cc2cc(-c3cc(CNCC4CCN(C)CC4)n4ncnc(N)c34)sc12` [Example 61], the IC50 against human FGFR-3 worked out at 43.5 nM; on human FGFR-1 it was 39.7 nM. In addition, the inhibition at 1 µM at human mTOR came to 8.6%.

Consider `CNCCOCc1cc(-c2cc3cc(C)cc(OC)c3s2)c2c(N)ncnn12` [Example 117], for which the IC50 came out at 34.8 nM on human FGFR-3 and 36.1 nM against human FGFR-1. Further, the inhibition at 1 µM at human mTOR was 0.3%.
